Test results as given in ChEMBL document CHEMBL3885861, “Open TG-GATES”.

Organism: Rattus norvegicus
Assay: Open TG-GATES - Regimen: Single
Assay type: toxicity, organism-based, Sprague-Dawley
Parameters: regimen Single, gender Male, age 6 weeks
Conditions: in vivo, po, 0 mg/kg, route gavage, dose level Control; for APTT / Bas / Eos / Fbg / Hb / Ht / Lym / MCH / MCHC / MCV / Mono / Neu / PT / Plat / RBC / Ret / WBC: tissue Blood; for KIDNEY_L / KIDNEY_R / KIDNEY_TOTAL: tissue Kidney; for LIVER: tissue Liver; for A/G / ALP / ALT / AST / BUN / CRE / Ca / Cl / DBIL / GLC / IP / K / LDH / Na / PL / RALB / TBIL / TC / TG / TP / gamma-GTP: tissue Plasma

CC(=N)S [THIOACETAMIDE]
TERMINAL_BW (3 h): 187.1 g | APTT (3 h): 17.5 s | Bas (3 h): 0% | Eos (3 h): 0.6% | Fbg (3 h): 224.8 mg/dL | Hb (3 h): 13.3 g/dL | Ht (3 h): 40% | Lym (3 h): 77.6% | MCH (3 h): 21.7 pg | MCHC (3 h): 33.1% | MCV (3 h): 65.4 fL | Mono (3 h): 8.2% | Neu (3 h): 13.4% | PT (3 h): 12 s | Plat (3 h): 101.8 x10_4/uL | RBC (3 h): 611.6 x10_4/ul | Ret (3 h): 8.4% | WBC (3 h): 120.6 x10_2/uL | KIDNEY_L (3 h): 0.9 g | KIDNEY_R (3 h): 0.9 g | KIDNEY_TOTAL (3 h): 1.7 g | LIVER (3 h): 8.7 g | A/G (3 h): 2.1 | ALP (3 h): 962.8 IU/L | ALT (3 h): 34.4 IU/L | AST (3 h): 69.2 IU/L | BUN (3 h): 10.2 mg/dL | CRE (3 h): 0.5 mg/dL | Ca (3 h): 10.6 mg/dL | Cl (3 h): 103.6 meq/L | DBIL (3 h): 0 mg/dL | GLC (3 h): 181.6 mg/dL | IP (3 h): 9.1 mg/dL | K (3 h): 4.8 meq/L | LDH (3 h): 87.6 IU/L | Na (3 h): 137.2 meq/L | PL (3 h): 141.8 mg/dL | RALB (3 h): 3.7 g/dL | TBIL (3 h): 0.4 mg/dL | TC (3 h): 79.8 mg/dL | TG (3 h): 52 mg/dL | TP (3 h): 5.5 g/dL | gamma-GTP (3 h): 1.8 IU/L | TERMINAL_BW (6 h): 185.6 g | APTT (6 h): 17 s | Bas (6 h): 0% | Eos (6 h): 1% | Fbg (6 h): 221.6 mg/dL | Hb (6 h): 13.1 g/dL | Ht (6 h): 39.7% | Lym (6 h): 79% | MCH (6 h): 21.6 pg | MCHC (6 h): 33.1% | MCV (6 h): 65.2 fL | Mono (6 h): 7.8% | Neu (6 h): 12.8% | PT (6 h): 12.1 s | Plat (6 h): 104 x10_4/uL | RBC (6 h): 610.4 x10_4/ul | Ret (6 h): 9.2% | WBC (6 h): 126.6 x10_2/uL | KIDNEY_L (6 h): 0.9 g | KIDNEY_R (6 h): 0.9 g | KIDNEY_TOTAL (6 h): 1.8 g | LIVER (6 h): 8.3 g | A/G (6 h): 2.4 | ALP (6 h): 828.6 IU/L | ALT (6 h): 30.2 IU/L | AST (6 h): 65.2 IU/L | BUN (6 h): 10.8 mg/dL | CRE (6 h): 0.6 mg/dL | Ca (6 h): 10.2 mg/dL | Cl (6 h): 103.8 meq/L | DBIL (6 h): 0.012 mg/dL | GLC (6 h): 182.4 mg/dL | IP (6 h): 9.6 mg/dL | K (6 h): 5.1 meq/L | LDH (6 h): 72.2 IU/L | Na (6 h): 136.6 meq/L | PL (6 h): 140.6 mg/dL | RALB (6 h): 3.8 g/dL | TBIL (6 h): 0.4 mg/dL | TC (6 h): 80.8 mg/dL | TG (6 h): 61.8 mg/dL | TP (6 h): 5.4 g/dL | gamma-GTP (6 h): 1 IU/L | TERMINAL_BW (9 h): 186.9 g | APTT (9 h): 16.2 s | Bas (9 h): 0% | Eos (9 h): 1% | Fbg (9 h): 226.8 mg/dL | Hb (9 h): 13 g/dL | Ht (9 h): 39.5% | Lym (9 h): 75% | MCH (9 h): 22 pg | MCHC (9 h): 33% | MCV (9 h): 66.7 fL | Mono (9 h): 7.8% | Neu (9 h): 16.2% | PT (9 h): 12.4 s | Plat (9 h): 107.7 x10_4/uL | RBC (9 h): 592 x10_4/ul | Ret (9 h): 9.4% | WBC (9 h): 120.6 x10_2/uL | KIDNEY_L (9 h): 0.9 g | KIDNEY_R (9 h): 0.9 g | KIDNEY_TOTAL (9 h): 1.8 g | LIVER (9 h): 8 g | A/G (9 h): 2 | ALP (9 h): 859.8 IU/L | ALT (9 h): 32.2 IU/L | AST (9 h): 62.8 IU/L | BUN (9 h): 13 mg/dL | CRE (9 h): 0.5 mg/dL | Ca (9 h): 10.3 mg/dL | Cl (9 h): 104.6 meq/L | DBIL (9 h): 0.03 mg/dL | GLC (9 h): 186.2 mg/dL | IP (9 h): 9.8 mg/dL | K (9 h): 4.8 meq/L | LDH (9 h): 84.4 IU/L | Na (9 h): 136.6 meq/L | PL (9 h): 124 mg/dL | RALB (9 h): 3.7 g/dL | TBIL (9 h): 0.4 mg/dL | TC (9 h): 71.8 mg/dL | TG (9 h): 42 mg/dL | TP (9 h): 5.6 g/dL | gamma-GTP (9 h): 1.4 IU/L | TERMINAL_BW (24 h): 198.1 g | APTT (24 h): 17.2 s | Bas (24 h): 0% | Eos (24 h): 0.8% | Fbg (24 h): 218.5 mg/dL | Hb (24 h): 13.3 g/dL | Ht (24 h): 40.6% | Lym (24 h): 80.8% | MCH (24 h): 21.1 pg | MCHC (24 h): 32.9% | MCV (24 h): 64.2 fL | Mono (24 h): 6.2% | Neu (24 h): 12.5% | PT (24 h): 12.1 s | Plat (24 h): 107.1 x10_4/uL | RBC (24 h): 632.8 x10_4/ul | Ret (24 h): 8.1% | WBC (24 h): 135 x10_2/uL | KIDNEY_L (24 h): 0.9 g | KIDNEY_R (24 h): 0.9 g | KIDNEY_TOTAL (24 h): 1.8 g | LIVER (24 h): 9.7 g | A/G (24 h): 2.2 | ALP (24 h): 883 IU/L | ALT (24 h): 32.5 IU/L | AST (24 h): 63.5 IU/L | BUN (24 h): 17.2 mg/dL | CRE (24 h): 0.5 mg/dL | Ca (24 h): 10.4 mg/dL | Cl (24 h): 102.8 meq/L | DBIL (24 h): 0.0425 mg/dL | GLC (24 h): 183.2 mg/dL | IP (24 h): 7.2 mg/dL | K (24 h): 5.4 meq/L | LDH (24 h): 87.2 IU/L | Na (24 h): 136 meq/L | PL (24 h): 152.8 mg/dL | RALB (24 h): 4 g/dL | TBIL (24 h): 0.3 mg/dL | TC (24 h): 77.2 mg/dL | TG (24 h): 113.2 mg/dL | TP (24 h): 5.8 g/dL | gamma-GTP (24 h): 1.5 IU/L
